The test system of data set [1] is PC3 prostate cancer cells. As to the kind of experiment: Cell proliferation assay in prostate cancer PC3 cells. The format is cell-based. The following applies: for inhibition at 10 µM: Homo sapiens, PC-3. The procedure: Cell Proliferation Assay:
PC3 prostate cancer cells were cultured in DMEM/F-12 HAM Mixture (Sigma D8437), 10% Fetal Bovine Serum (Atlanta Biological S11150). Before the treatment, 3.5×10^4 cells per well were split into 12-well plates. After 24 h, 10 μM of each compound was added to each well. DMSO was used as a control. This experiment was done in triplicate. Cell viability and number were analyzed using Vi-Cell XR Cell Viability Analyzer (Beckman Coulter).

With `COc1ccc(-c2c(C)oc3c4c(ccc3c2=O)OC2(O)CCCCC2C4)cc1` (stereo not drawn) [Isoflavonoid 24g, 7a-Hydroxy-3-(4-methoxyphenyl)-2-methyl-8,9,10,11,11a,12-hexahydro-4H,7aH-pyrano[2,3-a]xanthen-4-one], the melting point (commonly the temperature of the solid-liquid transition) lay in the range of 212 to 213 °C. For the same compound, in data set [1], the inhibition (in general, the relative decrease from the control value, in per cent) at 10 µM came to 78 ± 1%.

Regarding `COCc1c(OC)cc2occ(-c3ccc(OC)cc3)c(=O)c2c1O` [Isoflavonoid 10b, 5-Hydroxy-7-methoxy-6-(methoxymethyl)-3-(4-methoxyphenyl)-4H-chromen-4-one], the melting point was 180 to 181 °C. Further, the inhibition at 10 µM in data set [1] stood at 0%.

The compound `COCc1cc2c(=O)c(-c3ccc(OC)cc3)coc2c(C)c1O` [Isoflavonoid 10c, 7-Hydroxy-6-(methoxymethyl)-3-(4-methoxyphenyl)-8-methyl-4H-chromen-4-one] displayed a melting point of 143 to 145 °C.

Regarding `O=c1c(-c2ccc(Cl)cc2)coc2c3c(ccc12)OC1OCCC1C3` (stereo not drawn) [Isoflavonoid 20e, 3-(4-Chlorophenyl)-9,10,10a,11-tetrahydro-4H,7aH-furo[2,3-b]pyrano[2,3-f]chromen-4-one], the melting point lay in the range of 194 to 195 °C. In addition, at 10 µM the inhibition in data set [1] was 63 ± 10%.

In turn, `COc1ccc(-c2coc3c(CO)c(OC)cc(O)c3c2=O)cc1` [Isoflavonoid 9b, 5-Hydroxy-8-(hydroxymethyl)-7-methoxy-3-(4-methoxyphenyl)-4H-chromen-4-one] yielded a melting point of 139 to 141 °C. In data set [1], the inhibition at 10 µM turned out to be 79.5 ± 3.6%.

Turning to `COc1ccc(-c2coc3c(CO)c(O)ccc3c2=O)cc1` [Isoflavonoid 9d, 7-Hydroxy-8-(hydroxymethyl)-3-(4-methoxyphenyl)-4H-chromen-4-one], the melting point was 150 to 152 °C (dec.). Besides, testing at 10 µM in data set [1] gave an inhibition of 99.5 ± 0.2%.

In turn, `COc1ccc(-c2coc3c4c(ccc3c2=O)OC2OCCC2C4)cc1OC` (stereo not drawn) [Isoflavonoid 20b, 3-(3,4-Dimethoxyphenyl)-9,10,10a,11-tetrahydro-4H,7aH-furo[2,3-b]pyrano[2,3-f]chromen-4-one] showed a melting point of 193 to 195 °C.

`COc1ccccc1-c1coc2cc(OC)c(COC(C)=O)c(OC(C)=O)c2c1=O` [Isoflavonoid 6a, 5-Acetoxy-6-(acetoxymethyl)-7-methoxy-3-(2-methoxyphenyl)-4H-chromen-4-one] had an inhibition at 10 µM in data set [1] of 17.1 ± 5.9%.

Turning to `COc1ccc(-c2coc3c4c(ccc3c2=O)OC2OCCCC2C4)cc1OC` (stereo not drawn) [Isoflavonoid 21b, 3-(3,4-Dimethoxyphenyl)-10,11,11a,12-tetrahydro-4H,7aH,9H-dipyrano[2,3-b:2′,3′-f]chromen-4-one], the melting point is 177 to 178 °C. Besides, the inhibition at 10 µM in data set [1] worked out at 35 ± 10%.

Turning to `COCc1c(O)ccc2c(=O)c(-c3ccc(OC)cc3)c(C)oc12` [Isoflavonoid 11e, 7-Hydroxy-8-(methoxymethyl)-3-(4-methoxyphenyl)-2-methyl-4H-chromen-4-one], the melting point was 215 to 217 °C (dec.).

`COc1ccc(-c2coc3cc(OC)c(CO)c(O)c3c2=O)cc1` [Isoflavonoid 8b, 5-Hydroxy-6-(hydroxymethyl)-7-methoxy-3-(4-methoxyphenyl)-4H-chromen-4-one]: the melting point fell in the range of 138 to 139 °C. In addition, in data set [1], testing at 10 µM gave an inhibition of 0%.

Regarding `COCc1c(OC)cc(O)c2c(=O)c(-c3ccccc3OC)coc12` [Isoflavonoid 11a, 5-Hydroxy-7-methoxy-8-(methoxymethyl)-3-(2-methoxyphenyl)-4H-chromen-4-one], the melting point was 154 to 155 °C. This compound yielded an inhibition at 10 µM in data set [1] of 0%.

`Cc1oc2c3c(ccc2c(=O)c1-c1ccccc1)OC1OCCC1C3` (stereo not drawn) [Isoflavonoid 20f, 2-Methyl-3-phenyl-9,10,10a,11-tetrahydro-4H,7aH-furo[2,3-b]pyrano[2,3-f]chromen-4-one] gave a melting point of 181 to 182 °C.

The compound `COc1ccc(-c2coc3c(C)c(OC(C)=O)c(COC(C)=O)cc3c2=O)cc1` [Isoflavonoid 6c, [7-(Acetyloxy)-3-(4-methoxyphenyl)-8-methyl-4-oxo-4H-chromen-6-yl]methyl acetate] displayed a melting point of 136 to 138 °C.

In turn, `Cc1oc2c3c(ccc2c(=O)c1-c1ccc(Cl)cc1)OC1OCCC1C3` (stereo not drawn) [Isoflavonoid 20i, 3-(4-Chlorophenyl)-2-methyl-9,10,10a,11-tetrahydro-4H,7aH-furo[2,3-b]pyrano[2,3-f]chromen-4-one] returned a melting point of 266 to 268 °C.

`COc1ccc(-c2coc3cc(OC)c(COC(C)=O)c(OC(C)=O)c3c2=O)cc1` [Isoflavonoid 6b, 5-Acetoxy-6-(acetoxymethyl)-7-methoxy-3-(4-methoxyphenyl)-4H-chromen-4-one] gave an inhibition at 10 µM in data set [1] of 51.7 ± 5.7%.

Regarding “3-(4-Methoxyphenyl)-2,11-methyl-6a,7,8,9a-tetrahydro-4H,6H-furo[2,3-b]pyrano[3,2-g]chromen-4-one [Isoflavonoid 25g]”, the Inhibition (in general, the drop in the measured response relative to a control, in per cent) at 10 μM (%) in data set [1] (Table 3, Diels-Alder adducts, inhibition of proliferation, PC3 cells, 10 μM) is 61 ± 2%.

`COc1ccc(-c2c(C)oc3c4c(ccc3c2=O)OC2=C(C4)C(=O)CC(C)(C)C2)cc1` [Isoflavonoid 22g, 3-(4-Methoxyphenyl)-2,9,9-trimethyl-8,9,10,12-tetrahydro 4H,11H-pyrano[2,3-a]xanthene-4,11-dione]: the melting point is 236 to 237 °C.

Turning to `Cc1oc2c3c(ccc2c(=O)c1-c1ccccc1)OC1=C(C3)C(=O)CC(C)(C)C1` [Isoflavonoid 22f, 2,9,9-trimethyl-3-phenyl-8,9,10,12-tetrahydro-4H,11H-pyrano[2,3-a]xanthene-4,11-dione], the melting point fell in the range of 265 to 266 °C.

The compound `COc1ccc(-c2c(C)oc3c4c(ccc3c2=O)OC2OCCC2C4)cc1OC` (stereo not drawn) [Isoflavonoid 20h, 3-(3,4-Dimethoxyphenyl)-2-methyl-9,10,10a,11-tetrahydro-4H,7aH-furo[2,3-b]pyrano[2,3-f]chromen-4-one] came in with a melting point of 217 to 219 °C.

Take `Cc1oc2c3c(ccc2c(=O)c1-c1ccccc1)OC1OCCCC1C3` (stereo not drawn) [Isoflavonoid 21f, 2-Methyl-3-phenyl-10,11,11a,12-tetrahydro-4H,7aH,9H-dipyrano[2,3-b:2′,3′-f]chromen-4-one]: the melting point was 165 to 167 °C.

`CC1(C)CC(=O)C2=C(C1)Oc1ccc3c(=O)c(-c4ccc5c(c4)OCO5)coc3c1C2` [Isoflavonoid 22c, 3-(1,3-Benzodioxol-5-yl)-9,9-dimethyl-8,9,10,12-tetrahydro-4H,11H-pyrano[2,3-a]xanthene-4,11-dione] came in with a melting point of 258 to 260 °C.

With `COc1ccc(-c2coc3c(COC(C)=O)c(OC)cc(OC(C)=O)c3c2=O)cc1` [Isoflavonoid 7b, 5-Acetoxy-8-(acetoxymethyl)-7-methoxy-3-(4-methoxyphenyl)-4H-chromen-4-one], the inhibition at 10 µM in data set [1] is 20.2 ± 2%.

On to `O=c1c(-c2ccc3c(c2)OCO3)coc2c3c(ccc12)OC1(O)CCCCC1C3` (stereo not drawn) [Isoflavonoid 24c, 3-(1,3-Benzodioxol-5-yl)-7a-hydroxy-8,9,10,11,11a,12-hexahydro-4H,7aH-pyrano[2,3-a]xanthen-4-one], for which the melting point is 197 °C.

In turn, `COc1ccc(-c2c(C)oc3c4c(ccc3c2=O)OC2(O)CCCCC2C4)cc1OC` (stereo not drawn) [Isoflavonoid 24h, 3-(3,4-Dimethoxyphenyl)-7a-hydroxy-2-methyl-8,9,10,11,11a,12-hexahydro-4H,7aH-pyrano[2,3-a]xanthen-4-one] came in with a melting point of 193 to 194 °C.

For `COc1ccc(-c2c(C)oc3c4c(ccc3c2=O)OC2OCCC2C4)cc1` (stereo not drawn) [Isoflavonoid 20g, 3-(4-Methoxyphenyl)-2-methyl-9,10,10a,11-tetrahydro-4H,7aH-furo[2,3-b]pyrano[2,3-f]chromen-4-one], the melting point fell in the range of 227 to 229 °C.

As for `COc1ccc(-c2coc3c(C)c(O)c(CO)cc3c2=O)cc1` [Isoflavonoid 8c, 7-Hydroxy-6-(hydroxymethyl)-3-(4-methoxyphenyl)-8-methyl-4H-chromen-4-one], the melting point was in the range of 153 to 155 °C.

Turning to `COc1ccc(-c2c(C)oc3c(C)c4c(cc3c2=O)CC2=C(CC(C)(C)CC2=O)O4)cc1` [Isoflavonoid 26g, 3-(4-Methoxyphenyl)-2,9,9,12-tetramethyl-6,8,9,10-tetrahydro-4H,7H-pyrano[3,2-b]xanthene-4,7-dione], the melting point was in the range of 270 to 272 °C.

In turn, `COc1ccc(-c2c(C)oc3c(CC4CCCC4=O)c(O)ccc3c2=O)cc1OC` (stereo not drawn) [Isoflavonoid 23h, 3-(3,4-Dimethoxyphenyl)-7-hydroxy-2-methyl-8-[(2-oxocyclopentyl)methyl]-4H-chromen-4-one] came in with a melting point of 88 to 90 °C.

Take `COc1ccccc1-c1coc2c(COC(C)=O)c(OC(C)=O)ccc2c1=O` [Isoflavonoid 7c, 7-(Acetoxy)-8-(acetoxymethyl)-3-(2-methoxyphenyl)-4H-chromen-4-one]: 10 µM produced 20.6 ± 3.8% inhibition in data set [1].

As to `COc1ccc(-c2coc3c(C)c4c(cc3c2=O)CC2=C(CC(C)(C)CC2=O)O4)cc1` [Isoflavonoid 26a, 3-(4-Methoxyphenyl)-9,9,12-trimethyl-6,8,9,10-tetrahydro-4H,7H-pyrano[3,2-b]xanthene-4,7-dione], the melting point lay within 230 to 232 °C.

Regarding `O=c1c(-c2ccc3c(c2)OCCO3)coc2c3c(ccc12)OC1OCCC1C3` (stereo not drawn) [Isoflavonoid 20d, 3-(2,3-Dihydro-1,4-benzodioxin-6-yl)-9,10,10a,11-tetrahydro-4H,7aH-furo[2,3-b]pyrano[2,3-f]chromen-4-one], the melting point is 188 to 189 °C.

For `COc1ccc(-c2c(C)oc3c(CC4CCCC4=O)c(O)ccc3c2=O)cc1` (stereo not drawn) [Isoflavonoid 23g, 7-Hydroxy-3-(4-methoxyphenyl)-2-methyl-8-[(2-oxocyclopentyl)methyl]-4H-chromen-4-one], the melting point was in the range of 210 to 211 °C.

For the compound `COc1ccc(-c2coc3c4c(ccc3c2=O)OC2=C(C4)C(=O)CC(C)(C)C2)cc1` [Isoflavonoid 22a, 3-(4-Methoxyphenyl)-9,9-dimethyl-8,9,10,12-tetrahydro-4H,11H-pyrano[2,3-a]xanthene-4,11-dione], the melting point lay in the range of 223 to 225 °C.

(Values after US9718799B2, “3-aryl-4H-chromene-4-ones as antineoplastic agents for the treatment of cancer” (The University of Kentucky Research Foundation, priority 2015, dated 2017).)
